In PubChem BioAssay (NCI):
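Following 48 hours of exposure in 96-well plates, responses at five concentrations were used to interpolate endpoints linearly. GI50 = concentration required for 50% inhibition of growth. At the TGI there is no net growth.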

Legend:
Assay in all cases: NCI anticancer screen, dose series, 48 h
OVCAR-8 ovarian = test system: OVCAR-8 ovarian
UACC-62 melanoma = test system: UACC-62 melanoma
PC-3 prostate = test system: PC-3 prostate
HOP-92 NSCLC = test system: HOP-92 NSCLC
SF-295 CNS = test system: SF-295 CNS
KM12 colon = test system: KM12 colon
OVCAR-3 ovarian = test system: OVCAR-3 ovarian
786-0 renal = test system: 786-0 renal
TK-10 renal = test system: TK-10 renal
NCI-H23 lung = test system: NCI-H23 lung

SMILES: CCCC(CCC)NCC(O)c1cc(-c2ccc(C(F)(F)F)cc2)nc(C(F)(F)F)c1 (stereo not given)
- GI50 (OVCAR-8 ovarian): 1830 nM
- TGI (OVCAR-8 ovarian): 3680 nM
- GI50 (UACC-62 melanoma): 1720 nM
- TGI (UACC-62 melanoma): 3250 nM
- GI50 (PC-3 prostate): 1750 nM
- TGI (PC-3 prostate): 3330 nM
- GI50 (HOP-92 NSCLC): 1430 nM
- TGI (HOP-92 NSCLC): 2870 nM
- GI50 (SF-295 CNS): 1990 nM
- TGI (SF-295 CNS): 3780 nM
- GI50 (KM12 colon): 1930 nM
- TGI (KM12 colon): 3420 nM
- GI50 (OVCAR-3 ovarian): 1930 nM
- TGI (OVCAR-3 ovarian): 3380 nM
- GI50 (786-0 renal): 1370 nM
- TGI (786-0 renal): 2900 nM
- GI50 (TK-10 renal): 1980 nM
- TGI (TK-10 renal): 3440 nM
- GI50 (NCI-H23 lung): 1580 nM
- TGI (NCI-H23 lung): 3150 nM
